{
  "source": "patent EP2457916A1",
  "about": "“Compound for the covalent attachment of the chemiluminescent probe N-(4-Aminobutyl)-N-ethylisoluminol (ABEI) to target molecules and uses thereof” (DiaSorin S.p.A., priority 2010, dated 2012)",
  "experiment": "Stability of compound (1a) dissolved in organic solvents, formation of the hydrolysis product (ABEI-glutaric acid) monitored by HPLC",
  "format": "physicochemical",
  "experimental": "The stability of compound (1a) dissolved in organic solvents (DMSO, acetonitrile) was evaluated at two different storage temperatures, -30°C and +4°C, by monitoring the formation of the hydrolysis product (ABEI-glutaric acid) using a chromatographic HPLC system.\nWithin the limits of reproducibility of the experimental determination, less than 2% of compound (1a) was hydrolysed to glutaric acid after 270 days at -30°C (Fig. 9), while less than 7% of compound (1a) was hydrolysed to acid at +4°C after 38 days (Fig. 10). This compares to the reported high instability of equivalent NHS esters which have half-lives of hours under physiological pH conditions. At 0°C and at pH 7, the half-life is typically 4-5 h [Lomant, A.J., Fairbanks, G. J. Mol. Biol. 1976, 104, 243-261], at pH 8.6 and 4°C this falls to only 10 min [Cuatrecaseas, P., Parikh, I. Biochemistry 1972, 11, 2291-2299].",
  "data": [
    {"substance": "N-(4-Aminobutyl)-N-ethylisoluminol anhydroglutarate [compound (1a)]", "values": [
      {"measurement": "compound (1a) hydrolysed to glutaric acid", "setting": "solution (DMSO), after 270 days at -30°C (Fig. 9)", "value": "less than 2%"},
      {"measurement": "compound (1a) hydrolysed to acid", "setting": "solution (DMSO), at +4°C after 38 days (Fig. 10)", "value": "less than 7%"},
      {"measurement": "stability of solution (in DMSO)", "setting": "stored at from +4°C to -30°C", "value": "highly stable"}
    ]}
  ]
}
